Experimental data published in PubChem BioAssay (NCI).
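Step 1: Grow cells in 96-well plates. Step 2: Expose to compound for 48 hours at 5 concentrations. Step 3: Interpolate endpoints linearly; if unreached, use highest concentration. TGI is the concentration that stops growth completely.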

Experiments:
Assay in all cases: DTP human tumour cell line panel, 48 h
[1] = tested on: MCF7 breast
[2] = tested on: OVCAR-5 ovarian
[3] = tested on: A549 NSCLC
[4] = tested on: SK-MEL-2 melanoma
[5] = tested on: HT29 colon
[6] = tested on: COLO 205 colon
[7] = tested on: HCT-116 colon
[8] = tested on: NCI-H460 lung
[9] = tested on: CAKI-1 renal
[10] = tested on: U251 CNS
[11] = tested on: EKVX NSCLC
[12] = tested on: UACC-257 melanoma
[13] = tested on: OVCAR-4 ovarian
[14] = tested on: KM12 colon
[15] = tested on: 786-0 renal
[16] = tested on: HCT-15 colon
[17] = tested on: SK-OV-3 ovarian
[18] = tested on: PC-3 prostate
[19] = tested on: TK-10 renal

Row | Structure (SMILES) | TGI [1] [µM] | TGI [2] [µM] | TGI [3] [µM] | TGI [4] [µM] | TGI [5] [µM] | TGI [6] [µM] | TGI [7] [µM] | TGI [8] [µM] | TGI [9] [µM] | TGI [10] [µM] | TGI [11] [µM] | TGI [12] [µM] | TGI [13] [µM] | TGI [14] [µM] | TGI [15] [µM] | TGI [16] [µM] | TGI [17] [µM] | TGI [18] [µM] | TGI [19] [µM]
1 | CC(=N/NC(=S)N1CCCCC1)/C(=N\NC(=S)N1CCCCC1)c1ccccc1 | > 22.7 | 3.87 | 4.5 | 4.62 | 4.71 | 4.06 | 5.83 | 4.48 | 4.22 | 3.53 | 3.43 | 4.52 | 3.61 | 3.99 | 3.69 | 4.56 | 3.49 | 3.55 | 3.21
2 | O=C1/C(=C/c2cccnc2)C(n2cccc2)c2c(Br)sc(Br)c21 (stereo unspecified) | 4.02 | 31.9 | 32.5 | 4.63 | 11.1 | 21.6 | 4.97 | 18.9 | 7.51 | 3.08 | 4.1 | 3.36 | 3.83 | 8.45 | 6.17 | 4.96 | 29.3 | 4.86 | 4.28
3 | COc1cc2cc(C(=O)N3CC(CCl)c4c3cc([N+](=O)[O-])c3ccccc43)[nH]c2c(OC)c1OC (stereo unspecified) | > 100 | > 100 | > 100 | > 100 | > 100 | > 100 | > 100 | > 63.8 | > 100 | > 100 | > 100 | > 100 | > 100 | > 100 | > 100 | > 100 | > 100 | > 100 | > 100
4 | CC1Cc2c(Br)nc(N)nc2NC1=O (stereo unspecified) | > 100 | > 100 | > 100 | > 100 | > 100 | > 100 | > 100 | > 100 | > 100 | > 100 | > 100 | > 100 | > 100 | > 100 | > 100 | > 100 | > 100 | > 100 | > 100
5 | CSC1=C(C(=O)Nc2ccc(Cl)cc2)C(N)=NC1=O | > 100 | > 100 | > 100 | > 100 | > 100 | > 100 | > 100 | > 100 | > 100 | > 100 | > 100 | > 100 | > 100 | > 100 | > 100 | > 100 | > 100 | > 100 | > 100
6 | COc1ccccc1C1SCC(=O)N1c1ccc(-n2c(-c3ccccc3)nc3ccccc3c2=O)cc1 (stereo unspecified) | > 100 | > 100 | > 100 | > 100 | > 100 | > 100 | > 100 | > 100 | > 100 | > 100 | > 100 | > 100 | 56.7 | > 100 | > 100 | > 100 | > 100 | > 100 | > 100
7 | CC(C)=CCC[C@@H](C)C1=C(O)C(Nc2ccccc2Br)=C(C)C(=O)C1=O | 39.7 | 41.9 | 44.6 | 41.9 | 37 | 32.3 | 43.6 | > 64.8 | 52.1 | 99.5 | 48.3 | 43.6 | > 100 | 32.1 | 51.2 | 22.9 | 68 | 38.6 | 68.2
8 | COc1cc(O)cc(/C=C/c2ccc(O)cc2)c1 | > 100 | > 100 | > 100 | > 100 | > 100 | > 100 | > 100 | > 100 | 78.2 | 81.4 | 94.1 | > 100 | > 100 | 93.7 | > 100 | 29.9 | > 100 | > 100 | 93.6
9 | O=C1/C(=C\c2ccc(Cl)cc2Cl)Sc2scc(-c3cccc([N+](=O)[O-])c3)[n+]21 | 15.5 | 34.4 | 42.3 | 30.3 | 10.9 | 2.56 | 17.8 | 29.7 | 8.21 | 44.1 | 14.3 | 18.3 | 38.1 | 26.7 | 12.3 | 4.87 | > 56.4 | 33.1 | 13.3
10 | N#Cc1c(-c2ccc(Cl)cc2)cc(-c2ccc(Nc3ccnc4cc(C(F)(F)F)ccc34)cc2)[nH]c1=O | > 100 | > 65 | > 100 | > 100 | > 48.9 | 59.4 | > 44 | > 100 | > 64.3 | > 100 | > 100 | > 100 | 24.2 | > 100 | 24.9 | > 100 | 73.1 | > 100 | 63.2
11 | CC(C)/C(Cl)=N\OC(=O)Nc1cccc(F)c1 | 32.8 | 35.1 | 34.9 | 18.9 | 43.6 | 5.87 | 30.6 | > 66.8 | 32.5 | 33.4 | 31.8 | 30 | 25.4 | 16.7 | 29.6 | 30.6 | 35.2 | 30.2 | 28.1
12 | CC(=O)Oc1ccc2c(c1)Oc1cc(C(C)=O)ccc1C21OC(=O)c2ccccc21 (stereo unspecified) | > 100 | > 100 | > 100 | > 100 | > 100 | > 100 | > 100 | > 100 | > 100 | > 100 | > 100 | > 100 | > 100 | > 100 | > 100 | > 100 | > 100 | > 100 | > 100
13 | CCc1n[nH]c(=S)n1/N=C\c1ccc(-c2ccccc2Cl)o1 | > 100 | > 100 | > 100 | 98 | > 100 | > 100 | 66.6 | > 100 | > 100 | 97.4 | > 100 | > 100 | > 100 | > 100 | 86.6 | 83.3 | > 100 | > 100 | > 100
14 | COc1cc(/C=C2\C[C@H]3[C@@H]4CC=C5C[C@@H](O)CC[C@]5(C)[C@H]4CC[C@]3(C)[C@H]2O)cc(OC)c1OC | > 100 | 61.9 | > 100 | 32.5 | 27.6 | 42.2 | 24.4 | > 100 | > 100 | 40.8 | > 100 | 83.1 | 46.2 | 39.4 | 27.1 | > 100 | > 100 | 92.6 | > 100
15 | O=C(/C=C(\O)c1ccc(Cl)cc1)C(=O)N=Nc1c(O)[nH]c2ccc(Br)cc12 | > 100 | > 100 | > 100 | 41.2 | > 100 | > 100 | > 100 | > 100 | > 100 | > 100 | > 100 | > 100 | > 100 | > 100 | > 100 | > 100 | > 100 | > 100 | > 100
16 | COC1=C2CC(C)CC(OC)[C@@H](OC(=O)CCN)[C@H](C)/C=C(\C)C(OC(N)=O)C(OC)/C=C\C=C(/C)C(=O)NC(=CC1=O)C2=O (stereo partly specified) | 2.03 | 21.1 | 29.2 | 22.7 | 13.1 | 0.964 | 12.3 | 24.4 | 17.7 | 6.19 | 25 | 2.82 | 12.6 | 8.36 | 14.2 | 13.8 | 25.4 | 15.1 | 20.4
17 | C=C1C(=O)O[C@@H]2[C@H]1C[C@@H](O)[C@H](C)[C@@](O)(C(=O)/C=C/C)[C@H]2OC(=O)C(C)CC (stereo partly specified) | 24.9 | 14.5 | 33 | 84.1 | 5.21 | 3.33 | 3.58 | > 100 | 2.91 | 26.6 | 27.3 | > 39.4 | 22.8 | 33.1 | 6.91 | 7.97 | > 100 | 51.5 | 16.7
18 | COc1cc(C2c3cc4c(cc3OC(NC3CCCCC3)C2C)OCO4)cc(OC)c1OC (stereo unspecified) | > 100 | > 100 | > 85.3 | 47.8 | 25.6 | 0.825 | 15.5 | > 100 | 2.75 | 23.9 | > 100 | > 100 | > 28.3 | 7.89 | 20.1 | > 45.4 | 15.3 | > 28.8 | > 68.8
19 | O=C(O)CNC(=O)CO/N=C1/C(c2c(O)[nH]c3ccccc23)=Nc2ccccc21 | > 100 | > 100 | > 100 | > 100 | > 100 | > 100 | > 100 | > 100 | > 100 | > 100 | > 100 | > 100 | > 100 | > 100 | > 100 | > 100 | > 100 | > 100 | > 100
20 | Cc1ccc([N+](=O)[O-])c2c(NCCNC(=O)Cn3ccnc3[N+](=O)[O-])ccnc12 | 44.2 | > 100 | > 100 | > 100 | > 100 | > 100 | > 100 | > 100 | > 100 | > 100 | > 100 | 87.7 | > 100 | > 100 | > 100 | > 100 | 59.7 | > 100 | > 100
21 | COC(OC)C1OC(CO)C(n2cc(C)c(=O)[nH]c2=O)C1O (stereo unspecified) | > 100 | > 100 | > 100 | > 100 | > 100 | > 100 | > 100 | > 100 | > 100 | > 100 | > 100 | > 100 | > 100 | > 100 | > 100 | > 100 | > 100 | > 100 | > 100
22 | CC1(c2ccc(F)cc2)CC(c2ccc(F)cc2)=C(C#N)C(=C(C#N)C#N)N1 (stereo unspecified) | 32.5 | 38.5 | 41.7 | 34.4 | 32.1 | 27.9 | 30.5 | 38.2 | 30.2 | 31.5 | 31.5 | 28.9 | 31.3 | 30.1 | 29.3 | 31.7 | 37.3 | 31.4 | 32.2
23 | C=CCc1cc(-c2cc(CC=C)c(O)c(CN(CCCl)CCCl)c2)cc(CN(CCCl)CCCl)c1O | 42.7 | 35.4 | 45.3 | 40.6 | 33.3 | 43.4 | 25.3 | 29.1 | 34.6 | 24.8 | 22.5 | 33.7 | 52.6 | 36.7 | 37.9 | 38 | 46.9 | 25.8 | 38.8
24 | Cc1nc(C)c(C(=O)NNC(=O)Cc2ccccc2)cc1C(=O)NNC(=O)Cc1ccccc1 | > 100 | > 100 | > 100 | > 100 | > 100 | > 100 | > 100 | > 100 | > 100 | > 100 | > 100 | > 100 | > 100 | > 100 | > 100 | > 100 | > 100 | > 100 | > 100
